Laboratory results from ChEMBL document CHEMBL4680273, “Teixobactin: A Paving Stone toward a New Class of Antibiotics?” (2020).
Converted amounts (≈) assume the structure as drawn. Blank lines part the entries; values can stand above or below the compound they belong to.

Legend:
Assay type in all cases: functional
Staphylococcus aureus [1] = experiment: Antibacterial activity against methicillin resistant Staphylococcus aureus ATCC 33591 incubated for 24 hrs
Staphylococcus aureus [2] = experiment: Antibacterial activity against Staphylococcus aureus SH1000 incubated for 24 hrs by CLSI-broth microdilution method
Bacillus subtilis = experiment: Antibacterial activity against Bacillus subtilis ATCC 6051 incubated for 16 hrs by UV/Visible absorbance method
Staphylococcus aureus [3] = experiment: Antibacterial activity against Staphylococcus aureus ATCC 29213 incubated for 16 hrs by UV/Visible absorbance method
[4] = Staphylococcus aureus, SH1000, read-out: MIC

SMILES: CC[C@H](C)[C@H](NC(=O)[C@@H](Cc1ccccc1)NC)C(=O)N[C@@H](CO)C(=O)N[C@H](CCC(N)=O)C(=O)N[C@@H](C(=O)N[C@H](C(=O)N[C@@H](CO)C(=O)N[C@H]1C(=O)N[C@@H](C)C(=O)N[C@H](C)C(=O)N[C@@H]([C@@H](C)CC)C(=O)O[C@H]1C)[C@@H](C)CC)[C@@H](C)CC
MIC (Staphylococcus aureus [1]): 32 µg/mL (≈ 27.6 µM)

SMILES: CC[C@H](C)[C@H](NC(=O)[C@@H](Cc1ccccc1)NC)C(=O)N[C@@H](CO)C(=O)N[C@H](CCC(N)=O)C(=O)N[C@@H](C(=O)N[C@H](C(=O)N[C@@H](CO)C(=O)N[C@H]1C(=O)N[C@@H](C)C(=O)N[C@@H](CCCNC(=N)N)C(=O)NC(CCCC(F)(F)F)C(=O)O[C@H]1C)[C@@H](C)CC)[C@@H](C)CC (some centres not stated)
MIC (Staphylococcus aureus [2]; [4]): 32 µg/mL (≈ 24.6 µM)

SMILES: CC[C@H](C)[C@H](NC(=O)[C@@H](Cc1ccccc1)NC)C(=O)N[C@@H](CO)C(=O)N[C@H](CCC(N)=O)C(=O)N[C@@H](C(=O)NC(C(=O)N[C@@H](CO)C(=O)N[C@H]1C(=O)N[C@@H](C)C(=O)N[C@@H](CCCNC(=N)N)C(=O)NC(C2CCCCC2)C(=O)O[C@H]1C)C1CCCCC1)[C@@H](C)CC (some centres not stated)
MIC (Bacillus subtilis): 1 µg/mL (≈ 0.771 µM)

SMILES: CC[C@H](C)[C@@H]1NC(=O)[C@H](CCCNC(=N)N)NC(=O)[C@H](C)NC(=O)[C@@H](NC(=O)[C@H](CO)NC(=O)[C@@H](NC(=O)[C@H](NC(=O)[C@@H](CCC(N)=O)NC(=O)[C@H](CO)NC(=O)[C@@H](NC(=O)[C@@H](Cc2ccccc2)NC)[C@@H](C)CC)[C@@H](C)CC)[C@@H](C)CC)[C@H](C)NC1=O
MIC (Staphylococcus aureus [3]): > 32 µg/mL

SMILES: CCCCC1NC(=O)[C@H](CCCNC(=N)NC)NC(=O)[C@H](C)NC(=O)[C@H](NC(=O)[C@H](CO)NC(=O)[C@@H](NC(=O)[C@H](NC(=O)[C@@H](CCC(N)=O)NC(=O)[C@H](CO)NC(=O)[C@@H](NC(=O)[C@@H](Cc2ccccc2)NC)[C@@H](C)CC)[C@@H](C)CC)[C@@H](C)CC)[C@H](C)OC1=O (some centres not stated)
MIC (Staphylococcus aureus [2]; [4]): 4 µg/mL (≈ 3.18 µM)

SMILES: CC[C@H](C)[C@H](NC(=O)[C@@H](Cc1ccccc1)NC)C(=O)N[C@@H](C)C(=O)N[C@H](CCC(N)=O)C(=O)N[C@@H](C(=O)N[C@H](C(=O)N[C@@H](CO)C(=O)N[C@H]1C(=O)N[C@@H](C)C(=O)N[C@@H](CCCNC(=N)N)C(=O)N[C@@H]([C@@H](C)CC)C(=O)O[C@H]1C)[C@@H](C)CC)[C@@H](C)CC
MIC (Staphylococcus aureus [1]): 1 µg/mL (≈ 0.814 µM)

SMILES: CC[C@H](C)[C@@H]1NC(=O)[C@H](CCCNC(=N)N)NC(=O)[C@H](C)NC(=O)[C@H](NC(=O)[C@H](CO)NC(=O)[C@@H](NC(=O)[C@H](NC(=O)[C@@H](CCC(N)=O)NC(=O)[C@H](CO)NC(=O)[C@@H](NC(=O)[C@@H](Cc2ccccc2)NC)[C@@H](C)CC)[C@@H](C)CC)[C@@H](C)CC)[C@@H](C)NC1=O
MIC (Staphylococcus aureus [3]): > 32 µg/mL

SMILES: CC[C@H](C)[C@H](NC(=O)[C@H](NC(=O)[C@@H](CCC(N)=O)NC(=O)[C@H](CO)NC(=O)[C@H](C)NC(=O)[C@@H](Cc1ccccc1)NC)[C@@H](C)CC)C(=O)N[C@@H](CO)C(=O)N[C@H]1C(=O)N[C@@H](C)C(=O)N[C@@H](CCCCN)C(=O)N[C@@H]([C@@H](C)CC)C(=O)O[C@H]1C
MIC (Bacillus subtilis): 32 µg/mL (≈ 27.2 µM)

SMILES: CC[C@H](C)[C@H](NC(=O)[C@@H](Cc1ccccc1)NC)C(=O)N[C@@H](CO)C(=O)N[C@H](C)C(=O)N[C@@H](C(=O)N[C@H](C(=O)N[C@@H](C)C(=O)N[C@H]1C(=O)N[C@@H](C)C(=O)N[C@@H](CCCNC(=N)N)C(=O)N[C@@H]([C@@H](C)CC)C(=O)O[C@H]1C)[C@@H](C)CC)[C@@H](C)CC
MIC (Staphylococcus aureus [1]): 1 µg/mL (≈ 0.854 µM)

SMILES: CC[C@H](C)[C@H](NC(=O)[C@@H](Cc1ccccc1)NC)C(=O)N[C@@H](CO)C(=O)N[C@H](CCC(N)=O)C(=O)N[C@@H](C(=O)N[C@H](C(=O)N[C@@H](CO)C(=O)N[C@H]1C(=O)N[C@@H](C)C(=O)N[C@@H](CCCNC(=N)N)C(=O)N[C@@H](C)C(=O)O[C@H]1C)[C@@H](C)CC)[C@@H](C)CC
MIC (Staphylococcus aureus [2]; [4]): ≥ 32 µg/mL

SMILES: C=CCCC1NC(=O)[C@H](CCCNC(=N)N)NC(=O)[C@H](C)NC(=O)[C@H](NC(=O)[C@H](CO)NC(=O)[C@@H](NC(=O)[C@H](NC(=O)[C@@H](CCC(N)=O)NC(=O)[C@H](CO)NC(=O)[C@@H](NC(=O)[C@@H](Cc2ccccc2)NC)[C@@H](C)CC)[C@@H](C)CC)[C@@H](C)CC)[C@H](C)OC1=O (some centres not stated)
MIC (Staphylococcus aureus [2]; [4]): 32 µg/mL (≈ 25.8 µM)

SMILES: CCCC1NC(=O)[C@H](CCCNC(=N)N)NC(=O)[C@H](C)NC(=O)[C@H](NC(=O)[C@H](CO)NC(=O)[C@@H](NC(=O)[C@H](NC(=O)[C@@H](CCC(N)=O)NC(=O)[C@H](CO)NC(=O)[C@@H](NC(=O)[C@@H](Cc2ccccc2)NC)[C@@H](C)CC)[C@@H](C)CC)[C@@H](C)CC)[C@H](C)OC1=O (some centres not stated)
MIC (Staphylococcus aureus [2]; [4]): 8 µg/mL (≈ 6.5 µM)

SMILES: CC[C@H](C)[C@@H]1NC(=O)[C@H](CCCNC(=N)N)NC(=O)[C@H](C)NC(=O)[C@@H](NC(=O)[C@H](CO)NC(=O)[C@@H](NC(=O)[C@H](NC(=O)[C@@H](CCC(N)=O)NC(=O)[C@H](CO)NC(=O)[C@@H](NC(=O)[C@@H](Cc2ccccc2)NC)[C@@H](C)CC)[C@@H](C)CC)[C@@H](C)CC)[C@@H](C)NC1=O
MIC (Staphylococcus aureus [3]): > 32 µg/mL

SMILES: CC[C@H](C)[C@H](NC(=O)[C@@H](Cc1ccccc1)NC)C(=O)N[C@@H](CO)C(=O)N[C@H](CCC(N)=O)C(=O)N[C@@H](C(=O)N[C@H](C(=O)N[C@@H](CO)C(=O)N[C@H]1C(=O)N[C@@H](C)C(=O)N[C@@H](C)C(=O)N[C@@H]([C@@H](C)CC)C(=O)O[C@H]1C)[C@@H](C)CC)[C@@H](C)CC
MIC (Staphylococcus aureus [1]): 1 µg/mL (≈ 0.863 µM)
MIC (Staphylococcus aureus [3]): 1 µg/mL (≈ 0.863 µM)

SMILES: CC[C@H](C)[C@H](NC(=O)[C@@H](C)NC(=O)[C@@H](CCC(N)=O)NC(=O)[C@H](CO)NC(=O)[C@@H](NC(=O)[C@@H](Cc1ccccc1)NC)[C@@H](C)CC)C(=O)N[C@@H](CO)C(=O)N[C@H]1C(=O)N[C@@H](C)C(=O)N[C@@H](CCCCN)C(=O)N[C@@H]([C@@H](C)CC)C(=O)O[C@H]1C
MIC (Bacillus subtilis): 16 µg/mL (≈ 13.6 µM)

SMILES: CC[C@H](C)[C@@H]1NC(=O)[C@H](CCCNC(=N)N)NC(=O)[C@H](C)NC(=O)[C@H](NC(=O)[C@H](CO)NC(=O)[C@@H](NC(=O)[C@H](NC(=O)[C@@H](CCC(N)=O)NC(=O)[C@H](CO)NC(=O)[C@@H](NC(=O)[C@@H](Cc2ccccc2)NC)[C@@H](C)CC)[C@@H](C)CC)[C@@H](C)CC)[C@H](C)NC1=O
MIC (Staphylococcus aureus [3]): 1 µg/mL (≈ 0.804 µM)

SMILES: CCCCC1NC(=O)[C@H](CCCN/C(=N\C)NC)NC(=O)[C@H](C)NC(=O)[C@H](NC(=O)[C@H](CO)NC(=O)[C@@H](NC(=O)[C@H](NC(=O)[C@@H](CCC(N)=O)NC(=O)[C@H](CO)NC(=O)[C@@H](NC(=O)[C@@H](Cc2ccccc2)NC)[C@@H](C)CC)[C@@H](C)CC)[C@@H](C)CC)[C@H](C)OC1=O (stereo in doubt; 127)
MIC (Staphylococcus aureus [2]): 16 µg/mL (≈ 12.6 µM)

SMILES: CCCCC1NC(=O)[C@H](CCCN/C(=N\C)NC)NC(=O)[C@H](C)NC(=O)[C@H](NC(=O)[C@H](CO)NC(=O)[C@@H](NC(=O)[C@H](NC(=O)[C@@H](CCC(N)=O)NC(=O)[C@H](CO)NC(=O)[C@@H](NC(=O)[C@@H](Cc2ccccc2)NC)[C@@H](C)CC)[C@@H](C)CC)[C@@H](C)CC)[C@H](C)OC1=O (stereo in doubt; 128)
MIC (Staphylococcus aureus [2]; [4]): 16 µg/mL (≈ 12.6 µM)

Further lines, results first:

MIC (Staphylococcus aureus [3]): 4 µg/mL (≈ 3.14 µM)
SMILES: CC[C@H](C)[C@H](NC(=O)[C@@H](Cc1ccccc1)NC)C(=O)N[C@@H](CO)C(=O)N[C@H](CCC(N)=O)C(=O)N[C@@H](C(=O)N[C@H](C(=O)N[C@@H](CO)C(=O)N[C@H]1C(=O)N[C@@H](C)C(=O)N[C@@H](CCCNC(=N)N)CC(=O)N[C@@H]([C@@H](C)CC)CC(=O)O[C@H]1C)[C@@H](C)CC)[C@@H](C)CC

MIC (Staphylococcus aureus [3]): 16 µg/mL (≈ 12.4 µM)
SMILES: CC[C@H](C)[C@H](NC(=O)[C@@H](Cc1ccccc1)NC)C(=O)N[C@@H](CO)C(=O)N[C@H](CCC(N)=O)C(=O)N[C@@H](C(=O)N[C@H](C(=O)N[C@@H](CO)C(=O)N[C@H]1C(=O)N[C@@H](C)CC(=O)N[C@@H](CCCNC(=N)N)CC(=O)N[C@@H]([C@@H](C)CC)CC(=O)O[C@H]1C)[C@@H](C)CC)[C@@H](C)CC

MIC (Staphylococcus aureus [3]): 4 µg/mL (≈ 3.18 µM)
SMILES: CC[C@H](C)[C@H](NC(=O)[C@@H](Cc1ccccc1)NC)C(=O)N[C@@H](CO)C(=O)N[C@H](CCC(N)=O)C(=O)N[C@@H](C(=O)N[C@H](C(=O)N[C@@H](CO)C(=O)N[C@H]1C(=O)N[C@@H](C)C(=O)N[C@@H](CCCNC(=N)N)C(=O)N[C@@H]([C@@H](C)CC)CC(=O)O[C@H]1C)[C@@H](C)CC)[C@@H](C)CC

MIC (Staphylococcus aureus [3]): > 32 µg/mL
SMILES: CC[C@H](C)[C@H](NC(=O)[C@@H](Cc1ccccc1)NC)C(=O)N[C@@H](CO)C(=O)N[C@H](CCC(N)=O)C(=O)N[C@@H](C(=O)N[C@H](C(=O)N[C@@H](CO)C(=O)N[C@H]1C(=O)N[C@@H](C)CC(=O)N[C@@H](CCCNC(=N)N)CC(=O)N[C@@H]([C@@H](C)CC)C(=O)O[C@H]1C)[C@@H](C)CC)[C@@H](C)CC

MIC (Staphylococcus aureus [3]): 8 µg/mL (≈ 6.36 µM)
SMILES: CC[C@H](C)[C@H](NC(=O)[C@@H](Cc1ccccc1)NC)C(=O)N[C@@H](CO)C(=O)N[C@H](CCC(N)=O)C(=O)N[C@@H](C(=O)N[C@H](C(=O)N[C@@H](CO)C(=O)N[C@H]1C(=O)N[C@@H](C)C(=O)N[C@@H](CCCNC(=N)N)CC(=O)N[C@@H]([C@@H](C)CC)C(=O)O[C@H]1C)[C@@H](C)CC)[C@@H](C)CC

MIC (Staphylococcus aureus [2]; [4]): 16 µg/mL (≈ 13.2 µM)
SMILES: CCC1NC(=O)[C@H](CCCNC(=N)N)NC(=O)[C@H](C)NC(=O)[C@H](NC(=O)[C@H](CO)NC(=O)[C@@H](NC(=O)[C@H](NC(=O)[C@@H](CCC(N)=O)NC(=O)[C@H](CO)NC(=O)[C@@H](NC(=O)[C@@H](Cc2ccccc2)NC)[C@@H](C)CC)[C@@H](C)CC)[C@@H](C)CC)[C@H](C)OC1=O (some centres not stated)

MIC (Staphylococcus aureus [3]): 32 µg/mL (≈ 25.1 µM)
SMILES: CC[C@H](C)[C@H](NC(=O)[C@@H](Cc1ccccc1)NC)C(=O)N[C@@H](CO)C(=O)N[C@H](CCC(N)=O)C(=O)N[C@@H](C(=O)N[C@H](C(=O)N[C@@H](CO)C(=O)N[C@H]1C(=O)N[C@@H](C)CC(=O)N[C@@H](CCCNC(=N)N)C(=O)N[C@@H]([C@@H](C)CC)CC(=O)O[C@H]1C)[C@@H](C)CC)[C@@H](C)CC

MIC (Staphylococcus aureus [3]): 32 µg/mL (≈ 25.1 µM)
SMILES: CC[C@H](C)[C@H](NC(=O)[C@@H](Cc1ccccc1)NC)C(=O)N[C@@H](CO)C(=O)N[C@H](CCC(N)=O)C(=O)N[C@@H](C(=O)N(C)[C@H](C(=O)N[C@@H](CO)C(=O)N[C@H]1C(=O)N[C@@H](C)CC(=O)N[C@@H](CCCNC(=N)N)C(=O)N[C@@H]([C@@H](C)CC)C(=O)O[C@H]1C)[C@@H](C)CC)[C@@H](C)CC
